Reference: publication PMC12348844, “Anti-Trypanosoma cruzi Potential of New Pyrazole-Imidazoline Derivatives” (Molecules, 2025)
Like-named read-outs stand apart in the source and are kept apart here.

What was measured:
[1] = Cytotoxicity assay, Vero cells (CellTiter-Glo); format: cell-based; conditions: African green monkey, mean ± SD
Description: Vero cells, obtained from the Rio de Janeiro Cell Bank (BCRT code 0245) and maintained through weekly subculturing with a dissociation solution containing 0.25% trypsin-EDTA, initiated once the monolayer reached an 80–100% confluence. Following harvesting, the cells were washed and resuspended in RPMI 1640 medium enriched with 10% fetal bovine serum (FBS). Cultures were maintained at 37 °C in a 5% CO2-humidified incubator. These cultures were used for drug screening assays and for producing culture-derived trypomastigotes of T. cruzi.
Cytotoxicity assays were performed using Vero cells, which were seeded at a density of 1.5 × 10^4 cells per well in white 96-well plates with clear bottoms. Following a 24 h adhesion period, the cultures were incubated at 37 °C in a 5% CO2 atmosphere. […] After 72 h of incubation, cell viability was assessed by adding CellTiter-Glo reagent (Promega Corporation, Madison, WI, USA), which induces cell lysis and reacts with the released ATP to produce luminescence. The resulting luminescence was measured using a Glomax Multi-Detection plate reader (Promega Corporation, Madison, WI, USA). The half-maximal inhibitory concentration (CC50) for cell viability was then calculated using GraphPad Prism software version 8.2.1.

[2] = tested on: T. cruzi Dm28c-Luc trypomastigotes; assay: Anti-T. cruzi in vitro assay, trypomastigotes (luminescence); format: cell-based; conditions: Trypanosoma cruzi, 24 h, mean ± SD
Description: (§1) The genetically modified Trypanosoma cruzi, clone Dm28c (TcI), expressing luciferase (Dm28c-Luc), was kindly provided by Dr. Cristina Henriques from Oswaldo Cruz Institute—Fiocruz. The parasites were maintained using Vero cell cultures in RPMI 1640 medium enriched with 10% FBS. At 4 days post-infection (dpi), the trypomastigotes released into the culture supernatant were harvested, subjected to centrifugation at 800× g for 20 min at 4 °C, and quantified with a Neubauer chamber. The isolated trypomastigotes were subsequently used for phenotypic screening, drug efficacy assessments employing a 3D cardiac model, washout experiments to evaluate reversibility, drug combination studies, and enzymatic assays.
Drug susceptibility assays were performed on T. cruzi Dm28c-Luc, a genetically engineered parasite expressing luciferase. The drug screening used both trypomastigotes and intracellular amastigotes. Trypomastigotes (1 × 10^6 parasites/well) were added to white 96-well plates with clear bottoms. […] The luminescence was measured using a Glomax Multi-Detection plate reader (Promega Corporation, Madison, WI, USA).

[3] = tested on: intracellular amastigotes of T. cruzi; assay: Drug combination with Bz, fixed-ratio isobologram, intracellular amastigotes; format: cell-based; conditions: Trypanosoma cruzi; proportion 1k:Bz 0:5, 72 h; read-out: IC50 (Mean ± DP) in combination assay
Description: The isobologram approach assessed the interaction between Bz and the promising candidate in intracellular amastigotes of T. cruzi. Vero cell cultures infected with T. cruzi (Dm28c-Luc) were treated for 72 h with various concentrations of combinations of Bz and the promising candidate, specifically at ratios of 5:0; 4:1; 3:2; 2:3; 1:4 and 0:5. The maximum concentration of each compound was established based on their IC50 values, ensuring both reached the fourth dilution in the serial dilution setup (1:3), culminating in a total of seven dilutions. After 72 h of treatment, parasite viability was measured by luminescence in a Glomax Multi-Detection plate reader (Promega Corporation, Madison, WI, USA) after incubation with luciferin. The IC50 values of each treatment combination were calculated individually, and the fractional inhibitory concentration index (FICI) was derived using the formula FICI = IC50 of the combination/IC50 of the compound alone. The overall FICI (ΣFICI) was calculated by summing the FICIs for both compounds in each combination group, while the average ΣFICI (xΣFICI) represented the overall mean across all combination groups. The xΣFICI values were then employed to classify the interaction as synergistic (xΣFICI ≤ 0.5), additive (0.5 < xΣFICI < 4), or antagonistic (xΣFICI > 4). […]

[4] = tested on: T. cruzi Dm28c-Luc intracellular amastigotes; assay: Anti-T. cruzi in vitro assay, intracellular amastigotes in Vero cells (luminescence); format: cell-based, Trypanosoma cruzi; conditions: Trypanosoma cruzi
Description: as §1
To evaluate the effect of pyrazole-imidazoline derivatives against intracellular amastigotes, Vero cells (1.5 × 10^4 cells/well) were cultured in a white 96-well plate with a clear bottom and subsequently infected with T. cruzi Dm28c-Luc at a 10:1 parasite-to-host cell ratio for 24 h. […] Parasite viability was measured by luminescence following the addition of luciferin (300 µg/mL). Background measurements (non-infected cultures incubated with luciferin, as well as luciferin-only controls) were performed to ensure the signal specifically originates from viable parasites. The IC50 and IC90 values, denoting the concentrations that achieve 50% and 90% reductions in viable parasites, respectively, were calculated using GraphPad Prism 8.2.1 software. Additionally, the selectivity index (SI) was calculated as the cytotoxic concentration (CC50) ratio in mammalian cells to the IC50 against T. cruzi, providing insight into the therapeutic window. Potency against intracellular amastigotes was evaluated using the formula 6—Log10 (IC50).

T. cruzi (Dm28c-Luc) = assay: Reversibility (washout) assay in T. cruzi-infected Vero cells; format: cell-based, Trypanosoma cruzi
Description: After treatment, the cultures were thoroughly washed, and parasite recrudescence was evaluated over an extended period of 10 days in RPMI medium supplemented with 10% fetal bovine serum (FBS). Culture supernatants were collected at intervals, and the luminescence signal indicative of trypomastigote release was assessed using a Glomax Multi-Detection plate reader (Promega Corporation, Madison, WI, USA) following the addition of luciferin every 2–3 days. At the experiment’s conclusion, the infection profile of the monolayer was also examined. Cells were fixed with PFA for 20 min at 4 °C, then stained with DAPI for microscopy analysis. Luminescence data were expressed in arbitrary luminescent units (A.L.U), and fluorescence images were acquired using the ImageXpress Micro XLS high-content screening (HCS) system (Molecular Devices, Sunnyvale, CA, USA).

Structure (SMILES): O=C(Cn1ccnc1[N+](=O)[O-])NCc1ccccc1 [Bz, Benznidazole, reference compound]
- CC50 at 72 h [1]: > 500 µM
- IC50 [2]: 20.5 ± 1.8 µM
- IC90 [2]: > 100 µM
- IC50 [3]: 2.3 ± 0.07 µM
- IC50 ([4]; Vero, intracellular amastigotes, 6 − Log10(IC50), read-out: pIC50 (potency) (converted)): 2.51 µM
- IC90 ([4]; 72 h, Dm28c-Luc in Vero cells, mean ± SD): 10.4 ± 0.5 µM
- IC50 ([4]; 72 h, Dm28c-Luc in Vero cells, mean ± SD, read-out: Intracellular Amastigotes IC50): 2.2 ± 0.4 µM
- reduction of parasite load of cell monolayer at 21 dpi (T. cruzi (Dm28c-Luc); 100 µM, 10 days treatment + 10 days washout): 98.4%
- parasite load of cell monolayer at 21 dpi (luminescence) (T. cruzi (Dm28c-Luc); 100 µM, untreated 5 × 10^5 A.L.U): 8 × 10^3 A.L.U
- sterility of cultures in reversibility assay (T. cruzi (Dm28c-Luc); 10 days treatment, tested conditions): failed to achieve sterility
